Measurements taken from patent US20240043427A1 (Gilead Sciences, Inc., priority 2020, published 2024).

How the values were obtained:
CD73 [1] = target: T1, CD73 (Homo sapiens (Human), UniProt P21589); format: biochemical; details: 1 mM NaH2PO4 in enzyme buffer, CD73 0.3 nM, AMP 15 uM
CD73 [2] = target: T1, CD73; assay: MDA-MB-231 Cell Based CD73 Activity Assay (DMEM); details: MDA-MB-231-GFP cells, DMEM medium with 10% human plasma, 200 uM AMP
Procedure: MDA-MB-231 Cell Based CD73 Activity Assay (DMEM) MDA-MB-231-GFP cells were seeded in 384-well plates (Greiner 781946) at a density of 3000 cells per well in 50 μL of DMEM medium with 10% HP (human plasma). Cells were plated into assay plate with compounds pre-spotted, for an overnight compound treatment. 50 uL of 400 uM AMP (final concentration will be 200 uM) was added using Bio-tek dispenser. Plates were incubated for 100 mins. […] The samples were analyzed using Rapid fire.

T1 sequence (P21589 27-574): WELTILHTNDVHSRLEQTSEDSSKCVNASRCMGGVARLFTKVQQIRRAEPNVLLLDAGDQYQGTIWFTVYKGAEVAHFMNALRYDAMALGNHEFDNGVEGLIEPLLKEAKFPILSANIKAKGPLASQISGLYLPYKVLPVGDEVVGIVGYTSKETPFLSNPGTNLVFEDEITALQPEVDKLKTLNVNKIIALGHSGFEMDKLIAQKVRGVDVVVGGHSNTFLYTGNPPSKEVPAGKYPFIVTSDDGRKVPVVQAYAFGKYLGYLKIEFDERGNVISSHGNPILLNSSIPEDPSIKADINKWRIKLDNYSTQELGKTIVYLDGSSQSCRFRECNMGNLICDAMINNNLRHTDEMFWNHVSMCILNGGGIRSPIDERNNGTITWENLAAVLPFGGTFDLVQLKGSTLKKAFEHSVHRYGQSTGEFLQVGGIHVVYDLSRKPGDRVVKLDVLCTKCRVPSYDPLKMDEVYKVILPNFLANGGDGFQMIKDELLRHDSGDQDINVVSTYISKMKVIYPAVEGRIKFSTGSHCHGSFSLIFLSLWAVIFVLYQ

Row | Structure (SMILES) | IC50 (CD73 [1]) | EC50 (CD73 [2])
1 | O=c1[nH]cc(-c2cc([C@@H]3[C@@H](c4ccc(F)c(F)c4)C3(F)F)c3nccn3n2)c(=O)[nH]1 (racemic) [Example 552, 5-(8-((1S,3S)-3-(3,4-difluorophenyl)-2,2-difluorocyclopropyl)imidazo[1,2-b]pyridazin-6-yl)pyrimidine-2,4(1H,3H)-dione] | 2.76 nM | 15.2 nM
2 | O=c1[nH]cc(-c2cc([C@H]3C[C@@H]3c3ccccc3Cl)c3nccn3n2)c(=O)[nH]1 (racemic) [Example 555, 5-(8-((1S,2S)-2-(2-chlorophenyl)cyclopropyl)imidazo[1,2-b]pyridazin-6-yl)pyrimidine-2,4(1H,3H)-dione] | 13.3 nM | 267 nM
3 | O=c1[nH]cc(-c2cc([C@H]3C[C@@H]3c3ccc(OC(F)F)cc3)c3nccn3n2)c(=O)[nH]1 (racemic) [Example 556, 5-(8-((1S,2S)-2-(4-(difluoromethoxy)phenyl)cyclopropyl)imidazo[1,2-b]pyridazin-6-yl)pyrimidine-2,4(1H,3H)-dione] | 3.41 nM | 14 nM
4 | O=c1[nH]cc(-c2cc([C@H]3C[C@@H]3c3ccc(OCC(F)(F)F)cc3)c3nccn3n2)c(=O)[nH]1 (racemic) [Example 564, 5-(8-((1S,2S)-2-(4-(2,2,2-trifluoroethoxy)phenyl)cyclopropyl)imidazo[1,2-b]pyridazin-6-yl)pyrimidine-2,4(1H,3H)-dione] | 2.53 nM | 31.3 nM
5 | O=c1[nH]cc(-c2cc([C@H]3C[C@@H]3c3ccc(Cl)nc3)c3nccn3n2)c(=O)[nH]1 (racemic) [Example 568, 5-(8-((1S,2S)-2-(6-chloropyridin-3-yl)cyclopropyl)imidazo[1,2-b]pyridazin-6-yl)pyrimidine-2,4(1H,3H)-dione] | 2.84 nM | 8.1 nM
6 | Cc1nc2ccc([C@H]3C[C@@H]3c3cc(-c4c[nH]c(=O)[nH]c4=O)nn4ccnc34)cc2s1 (racemic) [Example 570, 5-(8-((1S,2S)-2-(2-methylbenzo[d]thiazol-6-yl)cyclopropyl)imidazo[1,2-b]pyridazin-6-yl)pyrimidine-2,4(1H,3H)-dione] | 0.8 nM | 0.84 nM
7 | O=c1[nH]cc(-c2cc([C@H]3C[C@@H]3c3ccc(OCC(F)F)cc3)c3nccn3n2)c(=O)[nH]1 (racemic) [Example 574, 5-(8-((1S,2S)-2-(4-(2,2-difluoroethoxy)phenyl)cyclopropyl)imidazo[1,2-b]pyridazin-6-yl)pyrimidine-2,4(1H,3H)-dione] | 0.73 nM | 17.3 nM
8 | O=c1[nH]cc(-c2cc([C@H]3C[C@@H]3c3ccc(Cl)cn3)c3nccn3n2)c(=O)[nH]1 (racemic) [Example 576, 5-(8-((1S,2S)-2-(5-chloropyridin-2-yl)cyclopropyl)imidazo[1,2-b]pyridazin-6-yl)pyrimidine-2,4(1H,3H)-dione] | 2.05 nM | 6.9 nM
9 | Cc1nc2ccc([C@H]3C[C@@H]3c3cc(-c4c[nH]c(=O)[nH]c4=O)nn4c(F)cnc34)cc2s1 (racemic) [Example 580, 5-(3-fluoro-8-((1S,2S)-2-(2-methylbenzo[d]thiazol-6-yl)cyclopropyl)imidazo[1,2-b]pyridazin-6-yl)pyrimidine-2,4(1H,3H)-dione] | 1.63 nM | 5.79 nM
10 | O=c1[nH]cc(-c2cc([C@H]3C[C@@H]3c3ccc4ncsc4c3)c3ncc(F)n3n2)c(=O)[nH]1 (racemic) [Example 581, 5-(8-((1S,2S)-2-(benzo[d]thiazol-6-yl)cyclopropyl)-3-fluoroimidazo[1,2-b]pyridazin-6-yl)pyrimidine-2,4(1H,3H)-dione] | 0.89 nM | 2.16 nM
11 | O=c1[nH]cc(-c2cc([C@H]3C[C@@H]3c3ncc(C(F)(F)F)cc3F)c3nccn3n2)c(=O)[nH]1 (racemic) [Example 582, 5-(8-((1S,2S)-2-(3-fluoro-5-(trifluoromethyl)pyridin-2-yl)cyclopropyl)imidazo[1,2-b]pyridazin-6-yl)pyrimidine-2,4(1H,3H)-dione] | 4.96 nM | 15.6 nM
12 | O=c1[nH]cc(-c2cc([C@H]3C[C@@H]3c3ncc(Cl)cc3F)c3ncc(F)n3n2)c(=O)[nH]1 (racemic) [Example 583, 5-(8-((1S,2S)-2-(5-chloro-3-fluoropyridin-2-yl)cyclopropyl)-3-fluoroimidazo[1,2-b]pyridazin-6-yl)pyrimidine-2,4(1H,3H)-dione] | 2.63 nM | 9.53 nM
13 | O=c1[nH]cc(-c2cc([C@H]3C[C@@H]3c3ccc4nc(C(F)F)sc4c3)c3nccn3n2)c(=O)[nH]1 (racemic) [Example 589, 5-(8-((1S,2S)-2-(2-(difluoromethyl)benzo[d]thiazol-6-yl)cyclopropyl)imidazo[1,2-b]pyridazin-6-yl)pyrimidine-2,4(1H,3H)-dione] | 0.63 nM | 2.56 nM
14 | O=c1[nH]cc(-c2cc([C@H]3C[C@@H]3c3cc4c(cn3)cnn4CC(F)(F)F)c3nccn3n2)c(=O)[nH]1 (racemic) [Example 591, 5-(8-((1S,2S)-2-(1-(2,2,2-trifluoroethyl)-1H-pyrazolo[4,3-c]pyridin-6-yl)cyclopropyl)imidazo[1,2-b]pyridazin-6-yl)pyrimidine-2,4(1H,3H)-dione] | 0.72 nM | 0.17 nM
15 | O=c1[nH]cc(-c2cc([C@H]3C[C@@H]3c3cc(OCC4CC4(F)F)c(Cl)cn3)c3nccn3n2)c(=O)[nH]1 (mixture of isomers) [Example 597, 5-(8-((1S,2S)-2-(5-chloro-4-((2,2-difluorocyclopropyl)methoxy)pyridin-2-yl)cyclopropyl)imidazo[1,2-b]pyridazin-6-yl)pyrimidine-2,4(1H,3H)-dione] | 2.79 nM | 5.93 nM
16 | O=c1[nH]cc(-c2cc([C@H]3C[C@@H]3c3ccc4ccc(=O)n(CC(F)(F)F)c4c3)c3nccn3n2)c(=O)[nH]1 (racemic) [Example 598, 5-(8-((1S,2S)-2-(2-oxo-1-(2,2,2-trifluoroethyl)-1,2-dihydroquinolin-7-yl)cyclopropyl)imidazo[1,2-b]pyridazin-6-yl)pyrimidine-2,4(1H,3H)-dione] | 1.11 nM | 0.11 nM
17 | O=c1[nH]cc(-c2cc([C@H]3C[C@@H]3c3ccc4ccc(OCC(F)(F)F)nc4c3)c3nccn3n2)c(=O)[nH]1 (racemic) [Example 599, 5-(8-((1S,2S)-2-(2-(2,2,2-trifluoroethoxy)quinolin-7-yl)cyclopropyl)imidazo[1,2-b]pyridazin-6-yl)pyrimidine-2,4(1H,3H)-dione] | 2.38 nM | 41.2 nM

Other lines, results leading:

Row | IC50 (CD73 [1]) | EC50 (CD73 [2]) | Structure (SMILES)
18 | 2.59 nM | 6.64 nM | O=c1[nH]cc(-c2cc([C@H]3C[C@@H]3c3cc(OCC(F)(F)F)c(Cl)cn3)c3nccn3n2)c(=O)[nH]1 (racemic) [Example 600, 5-(8-((1S,2S)-2-(5-chloro-4-(2,2,2-trifluoroethoxy)pyridin-2-yl)cyclopropyl)imidazo[1,2-b]pyridazin-6-yl)pyrimidine-2,4(1H,3H)-dione]
19 | 1.16 nM | 0.17 nM | O=c1[nH]cc(-c2cc([C@H]3C[C@@H]3c3ccc4cnn(CC(F)(F)F)c4n3)c3nccn3n2)c(=O)[nH]1 (racemic) [Example 601, 5-(8-((1S,2S)-2-(1-(2,2,2-trifluoroethyl)-1H-pyrazolo[3,4-b]pyridin-6-yl)cyclopropyl)imidazo[1,2-b]pyridazin-6-yl)pyrimidine-2,4(1H,3H)-dione]
20 | 0.93 nM | 0.53 nM | O=c1[nH]cc(-c2cc([C@H]3C[C@@H]3c3ccc4cnn(CC(F)(F)F)c4n3)c3ncc(F)n3n2)c(=O)[nH]1 (racemic) [Example 602, 5-(3-fluoro-8-((1S,2S)-2-(1-(2,2,2-trifluoroethyl)-1H-pyrazolo[3,4-b]pyridin-6-yl)cyclopropyl)imidazo[1,2-b]pyridazin-6-yl)pyrimidine-2,4(1H,3H)-dione]
21 | 1.94 nM | 0.09 nM | O=c1[nH]cc(-c2cc([C@H]3C[C@@H]3c3ccc4nc(C(F)(F)F)n(CC(F)(F)F)c4c3)c3nccn3n2)c(=O)[nH]1 (racemic) [Example 603, 5-(8-((1S,2S)-2-(1-(2,2,2-trifluoroethyl)-2-(trifluoromethyl)-1H-benzo[d]imidazol-6-yl)cyclopropyl)imidazo[1,2-b]pyridazin-6-yl)pyrimidine-2,4(1H,3H)-dione]
22 | 0.83 nM | 0.12 nM | O=c1[nH]cc(-c2cc([C@H]3C[C@@H]3c3cc4c(cn3)cnn4CC(F)(F)F)c3ncc(F)n3n2)c(=O)[nH]1 (racemic) [Example 604, 5-(3-fluoro-8-((1S,2S)-2-(1-(2,2,2-trifluoroethyl)-1H-pyrazolo[4,3-c]pyridin-6-yl)cyclopropyl)imidazo[1,2-b]pyridazin-6-yl)pyrimidine-2,4(1H,3H)-dione]
23 | 1.26 nM | 0.12 nM | O=c1[nH]cc(-c2cc([C@H]3C[C@@H]3c3ccc4cnc(CC(F)(F)F)n4c3)c3nccn3n2)c(=O)[nH]1 (racemic) [Example 605, 5-(8-((1S,2S)-2-(3-(2,2,2-trifluoroethyl)imidazo[1,5-a]pyridin-6-yl)cyclopropyl)imidazo[1,2-b]pyridazin-6-yl)pyrimidine-2,4(1H,3H)-dione]
24 | 2.36 nM | 0.48 nM | O=c1[nH]cc(-c2cc([C@H]3C[C@@H]3c3cc4c(cn3)c(C(F)(F)F)nn4CC(F)(F)F)c3nccn3n2)c(=O)[nH]1 (racemic) [Example 608, 5-(8-((1S,2S)-2-(1-(2,2,2-trifluoroethyl)-3-(trifluoromethyl)-1H-pyrazolo[4,3-c]pyridin-6-yl)cyclopropyl)imidazo[1,2-b]pyridazin-6-yl)pyrimidine-2,4(1H,3H)-dione]
